Results taken from PubChem BioAssay (NCI).
Counter-ions that a name gives are not always drawn.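 Tested at 5 concentrations; 48 h exposure; 96-well plates; endpoints linearly interpolated, else capped at highest concentration. TGI marks complete inhibition of growth.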 Where a SMILES comes first, the peptide text is derived from it. The star is where a group is joined. Boc = CC(C)(C)OC(=O)*; Tfa = O=C(C(F)(F)F)*; Bz = O=C(c1ccccc1)*

Assays:
Test in all cases: growth of human tumour cells (NCI), 48 h
A549 NSCLC = tested on: A549 NSCLC
CAKI-1 renal = tested on: CAKI-1 renal
COLO 205 colon = tested on: COLO 205 colon
DU-145 prostate = tested on: DU-145 prostate
HCT-116 colon = tested on: HCT-116 colon
HCT-15 colon = tested on: HCT-15 colon
HOP-62 NSCLC = tested on: HOP-62 NSCLC
HOP-92 NSCLC = tested on: HOP-92 NSCLC
HS 578T breast = tested on: HS 578T breast
HT29 colon = tested on: HT29 colon
KM12 colon = tested on: KM12 colon
MCF7 breast = tested on: MCF7 breast
NCI-H460 lung = tested on: NCI-H460 lung
OVCAR-3 ovarian = tested on: OVCAR-3 ovarian
OVCAR-5 ovarian = tested on: OVCAR-5 ovarian
PC-3 prostate = tested on: PC-3 prostate
SF-295 CNS = tested on: SF-295 CNS
SNB-75 CNS = tested on: SNB-75 CNS
UACC-257 melanoma = tested on: UACC-257 melanoma
UO-31 renal = tested on: UO-31 renal

| Structure (SMILES) | TGI (A549 NSCLC) | TGI (CAKI-1 renal) | TGI (COLO 205 colon) | TGI (DU-145 prostate) | TGI (HCT-116 colon) | TGI (HCT-15 colon) | TGI (HOP-62 NSCLC) | TGI (HOP-92 NSCLC) | TGI (HS 578T breast) | TGI (HT29 colon) | TGI (KM12 colon) | TGI (MCF7 breast) | TGI (NCI-H460 lung) | TGI (OVCAR-3 ovarian) | TGI (OVCAR-5 ovarian) | TGI (PC-3 prostate) | TGI (SF-295 CNS) | TGI (SNB-75 CNS) | TGI (UACC-257 melanoma) | TGI (UO-31 renal) |
| --- | --- | --- | --- | --- | --- | --- | --- | --- | --- | --- | --- | --- | --- | --- | --- | --- | --- | --- | --- | --- |
| O=C(CN1CCN(Cc2ccccc2)CC1)c1ccc2[nH]c(=O)oc2c1 | > 100 µM | > 100 µM | > 100 µM | > 100 µM | > 100 µM | > 100 µM | > 100 µM | > 100 µM | > 100 µM | > 100 µM | > 100 µM | > 100 µM | > 100 µM | > 100 µM | > 100 µM | > 100 µM | > 100 µM | > 100 µM | > 100 µM | > 100 µM |
| CCCCCCCC1C(C)c2c([nH]c3ccccc23)C2C(=O)N(c3ccc(OC)cc3)C(=O)C21 (stereo not given) | 5.33 µM | > 8.37 µM | > 10 µM | > 10 µM | 3.61 µM | > 10 µM | > 7.78 µM | > 10 µM | 4.88 µM | > 7.4 µM | > 10 µM | > 10 µM | 3.62 µM | 6.71 µM | > 10 µM | > 10 µM | > 6.64 µM | 3.91 µM | 7.65 µM | 6.86 µM |
| Cc1c2c(c(C)n1-c1ccccc1)C(=O)N(CCCCN1CCN(c3ccccc3)CC1)C2=O | > 100 µM | > 100 µM | 21.7 µM | > 100 µM | 20.9 µM | 54.8 µM | 36.1 µM | 46.3 µM | > 100 µM | 10.1 µM | > 100 µM | 35.8 µM | 47.4 µM | 88.5 µM | > 100 µM | 39.5 µM | 53.7 µM | > 100 µM | 22.2 µM | 24.8 µM |
| COc1cc(Cc2cc3c(c(C(=O)O)c2Br)OCO3)cc(OC)c1OC | > 100 µM | > 100 µM | > 100 µM | > 100 µM | > 100 µM | > 100 µM | > 100 µM | > 100 µM | > 100 µM | > 100 µM | > 100 µM | > 100 µM | > 100 µM | > 100 µM | > 100 µM | > 100 µM | > 100 µM | > 100 µM | > 100 µM | > 100 µM |
| COc1cc(-c2cn(S(=O)(=O)c3ccc(C)cc3)c3ccccc23)nc(-c2cn(S(=O)(=O)c3ccc(C)cc3)c3ccccc23)n1 | > 48.8 µM | > 100 µM | 3.31 µM | 1.85 µM | > 33.8 µM | > 100 µM | > 100 µM | > 60.9 µM | > 100 µM | 2 µM | 8.44 µM | > 100 µM | > 100 µM | > 100 µM | 19.6 µM | 38.5 µM | > 91.7 µM | > 100 µM | > 100 µM | > 75.1 µM |
| CCOC(=O)c1cnn2c1ncc1c(=O)n(NC(N)=O)ccc12 | > 100 µM | > 100 µM | > 100 µM | > 100 µM | > 100 µM | > 100 µM | > 100 µM | > 100 µM | > 100 µM | > 100 µM | > 100 µM | > 100 µM | > 100 µM | > 100 µM | > 100 µM | > 100 µM | > 100 µM | > 100 µM | > 100 µM | > 100 µM |
| O=P1(C(O)/C=C/c2ccccc2)N(Cc2ccccc2)[C@H](c2ccccc2)[C@@H](c2ccccc2)N1Cc1ccccc1 (stereo not given in full) | > 100 µM | 99.7 µM | 31.8 µM | > 100 µM | > 100 µM | > 85.3 µM | > 93.3 µM | > 68.9 µM | > 90.2 µM | > 86.3 µM | > 100 µM | > 100 µM | > 79.1 µM | > 93.1 µM | > 100 µM | > 94.7 µM | > 64.4 µM | > 83.6 µM | 57.6 µM | 98.3 µM |
| CC(=O)OC1=c2ccccc2=C(O)C2C1C=NN2C(C)=O (stereo not given) | > 100 µM | > 100 µM | > 100 µM | > 100 µM | > 100 µM | > 100 µM | > 100 µM | > 100 µM | > 100 µM | > 100 µM | > 100 µM | > 100 µM | > 100 µM | > 100 µM | > 100 µM | > 100 µM | > 100 µM | > 100 µM | > 100 µM | > 100 µM |
| CN(C)C(Cc1cnc[nH]1)C(=O)N1CCCC1C(N)=O (stereo not given) | > 100 µM | > 100 µM | > 100 µM | > 100 µM | > 100 µM | > 100 µM | > 100 µM | > 100 µM | > 100 µM | > 100 µM | > 100 µM | > 100 µM | > 100 µM | > 100 µM | > 100 µM | > 100 µM | > 100 µM | > 100 µM |  | > 100 µM |
| CC(NC(=O)C(Cc1ccc(OC(=O)c2ccccc2)cc1)NC(=O)OC(C)(C)C)C(=O)NC(Cc1ccccc1)C(=O)NCC(N)=O (stereo not given) (Boc-Y(Bz)AFG-NH2; configuration not given here) | 55 µM | > 100 µM | 84.8 µM | 42.3 µM | 91.6 µM | > 100 µM | 31.4 µM | 50.9 µM | 47 µM | 34.4 µM | > 100 µM | 40.8 µM | 33.7 µM |  | 40.3 µM | 37.3 µM | 40.1 µM | 49.6 µM | 37 µM | 35.2 µM |
| CO/N=C(\C)c1ccc(Nc2c3ccccc3nc3occc23)cc1 | 20 µM | 7.15 µM | 6.37 µM | 10.3 µM | 12.1 µM | 13.1 µM | 16.2 µM | 42 µM | 10.3 µM | 2.16 µM | 12.5 µM | 1.59 µM | 9.05 µM | 2.85 µM | 32.2 µM | 49.3 µM | 1.98 µM | 3.29 µM | 44.1 µM | 25.1 µM |
| NNC(=O)CSc1nc2ccc(I)cc2c(=O)n1Cc1ccccc1 | 54.6 µM | 40.2 µM | 53.2 µM | > 100 µM | 43.2 µM | > 100 µM | 43.9 µM | 57 µM | 52.5 µM | 44.8 µM | 58.7 µM | 59.4 µM | 44.7 µM | 54.9 µM | 40.9 µM | 69.3 µM | 53.7 µM | 50.4 µM | 44 µM | 35.4 µM |
| COc1cc(C2SC(N)=Nc3c2c(C)nn3C(=O)c2ccccc2O)cc(OC)c1OC (stereo not given) | > 10 µM | > 10 µM | > 10 µM | > 10 µM | > 10 µM | > 10 µM | > 10 µM | 8.07 µM | 8.53 µM | > 10 µM | > 10 µM | > 10 µM | > 10 µM | > 10 µM | > 10 µM | > 10 µM | > 10 µM | 6.85 µM | > 10 µM | > 10 µM |
| ClCCCN(CCCCl)c1ccc(C=Nc2cccc(Cl)c2)cc1 | > 79.7 µM | 11.8 µM | > 100 µM | > 44.6 µM | > 66.6 µM | > 100 µM | > 75.1 µM | > 100 µM | 71.8 µM | > 100 µM | > 80.6 µM | > 70.4 µM | > 82.1 µM | 57.9 µM | > 91.4 µM | 50.7 µM | > 82.4 µM | > 100 µM | > 77 µM | 88.3 µM |
| CC(=N\N)/C(C)=N/N=C(C)/C(C)=N/N=C(C)/C(C)=N/N=C(C)/C(C)=N/N | > 100 µM | > 100 µM | > 100 µM | > 100 µM | > 100 µM | > 100 µM | > 100 µM | > 100 µM | > 100 µM | > 100 µM | > 100 µM | > 100 µM | > 100 µM | > 100 µM | > 100 µM | > 100 µM | > 100 µM | > 100 µM | > 100 µM | > 100 µM |
| CCC(C#N)(c1ccccc1)N(CCc1ccccc1)C(=O)c1ccccc1 (stereo not given) | > 100 µM | > 100 µM | > 100 µM | > 100 µM | > 100 µM | > 100 µM | 50.8 µM | 45.2 µM | 69.6 µM | > 100 µM | > 100 µM | > 100 µM |  | > 100 µM | > 100 µM | > 100 µM | > 100 µM | 78.7 µM | > 100 µM | > 100 µM |
| O=C(O)CC(NC(=O)C(F)(F)F)C(=O)NC(Cc1ccc(O)cc1)C(=O)O (stereo not drawn) (Tfa-Asp-Tyr-OH; configuration not given here) | > 50 µM | > 50 µM | > 50 µM | > 50 µM |  | > 50 µM | > 50 µM | > 50 µM | > 50 µM | > 50 µM | > 50 µM | > 50 µM | > 50 µM | > 50 µM | > 50 µM | > 50 µM | > 50 µM | > 50 µM | > 50 µM | > 50 µM |
| CC1=NCCN=C(C)C1N=Nc1ccc2nc(C)[nH]c2c1 | 19.6 µM | 36 µM | 53.6 µM | 30.9 µM | 38 µM | > 100 µM | 61.1 µM | 22.5 µM | 57.5 µM | 50.9 µM | 30.9 µM | 30.1 µM | 52.1 µM | 44.3 µM | 39.9 µM | 22.3 µM | 31.5 µM | 33.1 µM | 28.6 µM |  |
